Assay results as given in patent publication US20250221966A1, “RXFP1 AGONISTS” (BRISTOL-MYERS SQUIBB COMPANY, priority 2021, published 2025).

Experiments:
[1] = intravenous (IV) formulation; cited from earlier work
human RXFP1 = target: T1, human RXFP1 (Homo sapiens, UniProt Q9HBX9); test: RXFP1 cAMP assay (hRXFP1 HEK293 cAMP assay, HTRF); type: cell-based; details: HEK293 cells stably expressing human RXFP1, 30 min at room temperature, read-out: cAMP hRXFP1 HEK293 Assay EC50
T1 construct: expressed in transfected cells
T1 sequence (Q9HBX9 1-757): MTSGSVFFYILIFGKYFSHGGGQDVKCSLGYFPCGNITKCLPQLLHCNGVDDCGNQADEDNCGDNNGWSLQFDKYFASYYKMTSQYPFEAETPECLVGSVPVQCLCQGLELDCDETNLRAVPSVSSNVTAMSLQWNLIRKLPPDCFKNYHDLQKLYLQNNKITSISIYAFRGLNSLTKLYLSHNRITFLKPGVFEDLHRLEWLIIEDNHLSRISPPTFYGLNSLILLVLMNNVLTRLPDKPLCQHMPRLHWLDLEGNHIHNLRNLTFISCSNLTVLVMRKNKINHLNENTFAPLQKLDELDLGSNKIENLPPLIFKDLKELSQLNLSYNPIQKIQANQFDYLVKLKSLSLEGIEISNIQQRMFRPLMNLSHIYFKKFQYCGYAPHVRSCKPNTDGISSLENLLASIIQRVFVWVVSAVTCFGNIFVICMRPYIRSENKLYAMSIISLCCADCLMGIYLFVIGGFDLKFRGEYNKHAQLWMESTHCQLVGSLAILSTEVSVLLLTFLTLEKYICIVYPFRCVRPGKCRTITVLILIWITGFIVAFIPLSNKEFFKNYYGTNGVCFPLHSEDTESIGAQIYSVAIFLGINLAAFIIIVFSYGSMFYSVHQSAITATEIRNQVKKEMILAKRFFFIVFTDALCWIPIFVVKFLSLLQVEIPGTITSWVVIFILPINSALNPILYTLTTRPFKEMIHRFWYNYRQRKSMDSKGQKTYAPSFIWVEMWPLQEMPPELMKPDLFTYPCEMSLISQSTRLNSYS
Summary of the method: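 Potency and activity come from a four-parameter logistic fit of cAMP against compound concentration, tested from 0.010 nM up to 50 μM. The assay uses HEK293 cells stably expressing human RXFP1, incubated 30 min at ambient temperature with phosphodiesterase inhibitor IBMX present.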

Row | EC50 (human RXFP1) [nM] | Compound | first-phase pharmacokinetic half-life [1] [min]
1 | – | Serelaxin | 5.4
2 | 180 | COc1ccc(C2=NOC3COCC23)cc1C(=O)N[C@H]1[C@@H](C(=O)NC2CCC(C(F)(F)F)C2)[C@H]2CC[C@@H]1/C2=C\C1CC1 (single isomer, unassigned) [Example 629] | –
3 | 2.5 | COc1c(F)cc(C2=NOC3CC(CO)CC23)cc1C(=O)N[C@H]1[C@@H](C(=O)N[C@H](C)C2(C)CC2)[C@H]2CC[C@@H]1/C2=C\CC(O)C(F)(F)F (stereo partly shown) [compound 821] | –
4 | 2 | COc1ccc(-c2cc(C(OC(=O)Nc3ccccc3F)C(F)(F)F)ccc2F)cc1C(=O)N[C@@H]1C2CCC(/C2=C/C2CC2)[C@@H]1C(=O)Nc1ccc(F)c(C(F)(F)F)c1 (stereo partly shown) [compound 223] | –
